Earlier results in patent US5766627A, “Multivescular liposomes with controlled release of encapsulated biologically active substances” (priority 1997, dated 1998).

What was measured:
[1] = tested on: strains of gram positive bacteria; settings: clinical, background statement
[2] = free amikacin, background statement
[3] = tested on: strains of gram negative bacteria; settings: clinical, background statement

NCC[C@H](O)C(=O)N[C@@H]1C[C@H](N)[C@@H](O[C@H]2O[C@H](CN)[C@@H](O)[C@H](O)[C@H]2O)[C@H](O)[C@H]1O[C@H]1O[C@H](CO)[C@@H](O)[C@H](N)[C@H]1O [amikacin]
activity against gram positive bacteria [1]: clinically significant activity
serum half-life [2]: two to three
activity against gram negative bacteria [3]: clinically significant activity
